# Measurements as given in paper PMC9652372, “Glycolytic flux control by drugging phosphoglycolate phosphatase” (Nature Communications, 2022).
# Values joined by “and” are separate entries in the source; they are usually repeats but may differ in a detail not shown here. Equal values may be shown once.
# Test system: HT1080 cells
# Experiment: NMR quantification of cellular metabolites; on 1-Methylnicotinamide (NMR metabolite level): unit not given here; on Acetic acid (NMR metabolite level): unit not given here; on Glutathione (NMR metabolite level): unit not given here; on Glycerol 3-phosphate (NMR metabolite level): unit not given here; on Glycine (NMR metabolite level): unit not given here; on L-Lactic acid (NMR metabolite level): unit not given here; on L-Lysine (NMR metabolite level): unit not given here; on L-Tyrosine (NMR metabolite level): unit not given here; on L-Valine (NMR metabolite level): unit not given here; on Phosphocreatine (NMR metabolite level): unit not given here; on Pyroglutamate (NMR metabolite level): unit not given here; on Taurine (NMR metabolite level): unit not given here; on Tryptophan (NMR metabolite level): unit not given here
# Format: cell-based, human
# Conditions: Exp #1-5
structure (smiles),measurement,setting,value
O=C(Nc1ccccc1C(=O)O)c1ccc(Oc2ccc(C(=O)Nc3ccccc3C(=O)O)cc2)cc1 [CP1],UDP-glucose (NMR metabolite level),T3: 3h CP1-treated,0.0008858 and 0.0008772 and 0.001067 and 0.000997 and 0.0009053
same,myo-Inositol (NMR metabolite level),T3: 3h CP1-treated,0.01161 and 0.01092 and 0.01214 and 0.0158 and 0.01228
same,1-Methylnicotinamide (NMR metabolite level),T24: 24h CP1-treated,0.0006688 and 0.0007226 and 0.00078 and 0.0009117 and 0.0008029
same,2-Hydroxyglutarate (NMR metabolite level),T24: 24h CP1-treated,0.01123 and 0.01613 and 0.01677 and 0.01849 and 0.01776
same,ADP (NMR metabolite level),T24: 24h CP1-treated,0.0007644 and 0.000746 and 0.001198 and 0.0008611 and 0.0008531
same,ATP (NMR metabolite level),T24: 24h CP1-treated,0.0006449 and 0.0006294 and 0.0008357 and 0.0006838 and 0.0006775
same,Acetic acid (NMR metabolite level),T24: 24h CP1-treated,0.003416 and 0.003823 and 0.003426 and 0.003622 and 0.002835
same,Choline (NMR metabolite level),T24: 24h CP1-treated,0.0001911 and 0.0002098 and 0.0002507 and 0.0002533 and 0.0003011
same,Creatine (NMR metabolite level),T24: 24h CP1-treated,0.005637 and 0.005968 and 0.005822 and 0.005673 and 0.00685
same,Dimethylamine (NMR metabolite level),T24: 24h CP1-treated,0.01722 and 0.009371 and 0.01178 and 0.009801 and 0.01006
same,Fumaric acid (NMR metabolite level),T24: 24h CP1-treated,0.0003583 and 0.0003497 and 0.0003621 and 0.0004052 and 0.0003764
same,Glutathione (NMR metabolite level),T24: 24h CP1-treated,0.00848 and 0.006947 and 0.009193 and 0.008991 and 0.00828
same,Glycerol 3-phosphate (NMR metabolite level),T24: 24h CP1-treated,0.005316 and 0.003498 and 0.00363 and 0.003634 and 0.003759
same,Glycerophosphocholine (NMR metabolite level),T24: 24h CP1-treated,0.0005972 and 0.0004662 and 0.000585 and 0.0005065 and 0.0006022
same,Glycine (NMR metabolite level),T24: 24h CP1-treated,0.01727 and 0.01921 and 0.02014 and 0.02011 and 0.0205
same,L-Alanine (NMR metabolite level),T24: 24h CP1-treated,0.006617 and 0.007063 and 0.007716 and 0.007015 and 0.00695
same,L-Arginine (NMR metabolite level),T24: 24h CP1-treated,0.002054 and 0.001585 and 0.002006 and 0.001975 and 0.001807
same,L-Aspartic acid (NMR metabolite level),T24: 24h CP1-treated,0.003296 and 0.003217 and 0.003844 and 0.003495 and 0.003463
same,L-Glutamic acid (NMR metabolite level),T24: 24h CP1-treated,0.03982 and 0.04634 and 0.04538 and 0.047 and 0.04456
same,L-Glutamine (NMR metabolite level),T24: 24h CP1-treated,0.05231 and 0.05105 and 0.05192 and 0.04586 and 0.05314
same,L-Isoleucine (NMR metabolite level),T24: 24h CP1-treated,0.007907 and 0.007716 and 0.008078 and 0.007775 and 0.007703
same,L-Lactic acid (NMR metabolite level),T24: 24h CP1-treated,0.08184 and 0.08616 and 0.0795 and 0.07679 and 0.07736
same,L-Leucine (NMR metabolite level),T24: 24h CP1-treated,0.00676 and 0.006597 and 0.007883 and 0.007192 and 0.007251
same,L-Lysine (NMR metabolite level),T24: 24h CP1-treated,0.002293 and 0.002238 and 0.002674 and 0.002431 and 0.002409
same,L-Methionine (NMR metabolite level),T24: 24h CP1-treated,0.002389 and 0.002331 and 0.002786 and 0.00276 and 0.002509
same,L-Phenylalanine (NMR metabolite level),T24: 24h CP1-treated,0.004013 and 0.003916 and 0.004123 and 0.003976 and 0.003889
same,L-Threonine (NMR metabolite level),T24: 24h CP1-treated,0.01522 and 0.01471 and 0.01638 and 0.01537 and 0.01478
same,L-Tyrosine (NMR metabolite level),T24: 24h CP1-treated,0.004491 and 0.004849 and 0.004652 and 0.004635 and 0.00424
same,L-Valine (NMR metabolite level),T24: 24h CP1-treated,0.007668 and 0.007693 and 0.007744 and 0.00775 and 0.007678
same,"N,N-Dimethylformamide (NMR metabolite level)",T24: 24h CP1-treated,0.0002389 and 0.0002331 and 0.0002786 and 0.0002533 and 0.0002509
same,NAD+ (NMR metabolite level),T24: 24h CP1-treated,0.002341 and 0.002611 and 0.002619 and 0.002533 and 0.002635
same,NADH (NMR metabolite level),T24: 24h CP1-treated,0.0002389 and 0.0002331 and 0.0003343 and 0.0002786 and 0.0002509
same,Phosphocreatine (NMR metabolite level),T24: 24h CP1-treated,0.001027 and 0.001002 and 0.001198 and 0.001165 and 0.001179
same,Phosphorylcholine (NMR metabolite level),T24: 24h CP1-treated,0.002054 and 0.002168 and 0.002256 and 0.002102 and 0.002158
same,Pyroglutamate (NMR metabolite level),T24: 24h CP1-treated,0.005255 and 0.004942 and 0.004596 and 0.005597 and 0.005796
same,Pyruvate (NMR metabolite level),T24: 24h CP1-treated,0.001983 and 0.001422 and 0.001532 and 0.001798 and 0.001932
same,Serine (NMR metabolite level),T24: 24h CP1-treated,0.005566 and 0.004965 and 0.004429 and 0.005901 and 0.004792
same,Taurine (NMR metabolite level),T24: 24h CP1-treated,0.00922 and 0.008998 and 0.009499 and 0.01099 and 0.01194
same,Tryptophan (NMR metabolite level),T24: 24h CP1-treated,0.0007883 and 0.0007693 and 0.0007243 and 0.0007851 and 0.0008029
same,UDP-N-Acetylglucosamine (NMR metabolite level),T24: 24h CP1-treated,0.003941 and 0.005105 and 0.006156 and 0.005242 and 0.005269
same,UDP-glucose (NMR metabolite level),T24: 24h CP1-treated,0.001935 and 0.001888 and 0.002981 and 0.002533 and 0.002559
same,myo-Inositol (NMR metabolite level),T24: 24h CP1-treated,0.007859 and 0.009021 and 0.01109 and 0.01281 and 0.00961
